From PubChem BioAssay AID256 (DTP/NCI, 2004)
Toxic doses and inconclusive results are not listed. Rule for the calls: active = survival T/C of 150% or more; inactive = T/C below 125% in these data.

Tested on: CD2F1 mice, L1210 leukemia ip, survival T/C
Assay: NCI In Vivo Anticancer Drug Screen. Data for tumor model L1210 Leukemia (intraperitoneal) in CD2F1 (CDF1) mice
Details: higher = longer survival
Outline: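 Transplantable tumor in mice; compound-treated vs vehicle-treated groups. Read-out = treated/control ratio of the measured endpoint.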

[1] = endpoint: mean survival time, dose: 100.0 mg/kg/injection, schedule: Q01DX001 (ip), vehicle: saline
[2] = endpoint: mean survival time, dose: 200.0 mg/kg/injection, schedule: Q01DX001 (ip), vehicle: saline
[3] = endpoint: mean survival time, dose: 400.0 mg/kg/injection, schedule: Q01DX001 (ip), vehicle: saline
[4] = endpoint: mean survival time, dose: 50.0 mg/kg/injection, schedule: Q04DX003 (ip), vehicle: saline
[5] = endpoint: mean survival time, dose: 100.0 mg/kg/injection, schedule: Q04DX003 (ip), vehicle: saline
[6] = endpoint: mean survival time, dose: 100.0 mg/kg/injection, schedule: Q04DX003 (ip), vehicle: saline with Tween-80
[7] = endpoint: mean survival time, dose: 200.0 mg/kg/injection, schedule: Q04DX003 (ip), vehicle: saline with Tween-80
[8] = endpoint: mean survival time, dose: 400.0 mg/kg/injection, schedule: Q04DX003 (ip), vehicle: saline with Tween-80
[9] = endpoint: mean survival time, dose: 100.0 mg/kg/injection, schedule: Q01DX001 (ip), vehicle: saline with Tween-80
[10] = endpoint: mean survival time, dose: 200.0 mg/kg/injection, schedule: Q04DX003 (ip), vehicle: saline
[11] = endpoint: mean survival time, dose: 400.0 mg/kg/injection, schedule: Q04DX003 (ip), vehicle: saline
[12] = endpoint: mean survival time, dose: 100.0 mg/kg/injection, schedule: Q01DX009 (ip), vehicle: saline with Tween-80
[13] = endpoint: mean survival time, dose: 200.0 mg/kg/injection, schedule: Q01DX009 (ip), vehicle: saline with Tween-80
[14] = endpoint: mean survival time, dose: 400.0 mg/kg/injection, schedule: Q01DX009 (ip), vehicle: saline with Tween-80

Measured: T/C

CCCCCCCCC(CCCCCC)CCCCCCCC
inactive: [1] 96 % of control | [2] 96 % of control | [3] 97 % of control

O=S(=O)(O)Sc1ccccc1
inactive: endpoint: mean survival time, dose: 25.0 mg/kg/injection, schedule: Q04DX003 (ip), vehicle: saline 97 % of control | [4] 97 % of control | [5] 98 % of control

Cc1c(C)c(O)c(Br)c(C)c1O (tested in a mixture with another compound)
inactive: endpoint: mean survival time, dose: 25.0 mg/kg/injection, schedule: Q04DX003 (ip), vehicle: other 100 % of control | endpoint: mean survival time, dose: 50.0 mg/kg/injection, schedule: Q04DX003 (ip), vehicle: other 94 % of control

S=C(NCCSSCCNC(=S)Nc1ccccc1)Nc1ccccc1
inactive: [6] 98 % of control | [7] 94 % of control | [8] 86 % of control

CO[C@@]12[C@@H]3N[C@@H]3CN1C1=C(C(=O)C(NCCN3CCOCC3)=C(C)C1=O)[C@@H]2COC(N)=O
inactive: endpoint: mean survival time, dose: 1.5 mg/kg/injection, schedule: Q01DX001 (ip), vehicle: water 100 % of control | endpoint: mean survival time, dose: 3.0 mg/kg/injection, schedule: Q01DX001 (ip), vehicle: water 101 % of control | endpoint: mean survival time, dose: 6.0 mg/kg/injection, schedule: Q01DX001 (ip), vehicle: water 105 % of control | endpoint: mean survival time, dose: 12.0 mg/kg/injection, schedule: Q01DX001 (ip), vehicle: water 106 % of control | endpoint: mean survival time, dose: 24.0 mg/kg/injection, schedule: Q01DX001 (ip), vehicle: water 103 % of control

CCC1Cc2c([nH]c(=O)n(-c3ccccc3)c2=O)O1 (configuration not stated)
inactive: [1] 95 % of control | [2] 98 % of control | [3] 92 % of control

O=C1C=CC(=Nc2ccccc2Cl)O1
inactive: [6] 103 % of control | [7] 101 % of control | [8] 100 % of control

C[N+](C)(C)CCC(=O)c1ccc(C(=O)CC[N+](C)(C)C)cc1
inactive: endpoint: mean survival time, dose: 50.0 mg/kg/injection, schedule: Q04DX002 (ip), vehicle: saline 96 % of control | [9] 100 % of control | endpoint: mean survival time, dose: 100.0 mg/kg/injection, schedule: Q04DX002 (ip), vehicle: saline 96 % of control | endpoint: mean survival time, dose: 200.0 mg/kg/injection, schedule: Q01DX001 (ip), vehicle: saline with Tween-80 94 % of control | endpoint: mean survival time, dose: 200.0 mg/kg/injection, schedule: Q04DX002 (ip), vehicle: saline 96 % of control

C=C1OC(n2cnc3c(N)ncnc32)C(O)C1O (configuration not stated)
inactive: [1] 98 % of control | [2] 101 % of control | [3] 98 % of control

S=C(S)N1CCCC1
inactive: [5] 95 % of control | [10] 95 % of control | [11] 92 % of control

Cc1ccc(S(=O)(=O)n2nc(C3OC(CO)C(O)C3O)c(O)c2C(N)=O)cc1 (configuration not stated)
inactive: endpoint: median survival time, dose: 44.6 mg/kg/injection, schedule: Q01DX005 (ip), vehicle: saline 120 % of control | endpoint: median survival time, dose: 89.3 mg/kg/injection, schedule: Q01DX005 (ip), vehicle: saline 120 % of control

O=C(C1CC=C2c3ccccc3CCC2C1C(=O)N1CCCCC1)N1CCCCC1 (configuration not stated)
inactive: endpoint: mean survival time, dose: 75.0 mg/kg/injection, schedule: Q01DX001 (ip), vehicle: saline 104 % of control | endpoint: mean survival time, dose: 150.0 mg/kg/injection, schedule: Q01DX001 (ip), vehicle: saline 98 % of control | endpoint: mean survival time, dose: 300.0 mg/kg/injection, schedule: Q01DX001 (ip), vehicle: saline 107 % of control

CCc1ncc(C(C)(O)c2ccccc2)n1Cc1ccccc1 (configuration not stated)
inactive: [12] 95 % of control | [13] 90 % of control | [14] 94 % of control

CC1(C)CC(=O)C2(C)C(C1O)C2C1C2C(O)C(C)(C)CC(=O)C21C (configuration not stated)
inactive: endpoint: mean survival time, dose: 75.0 mg/kg/injection, schedule: Q01DX001 (ip), vehicle: other 96 % of control | endpoint: mean survival time, dose: 150.0 mg/kg/injection, schedule: Q01DX001 (ip), vehicle: other 94 % of control | endpoint: mean survival time, dose: 300.0 mg/kg/injection, schedule: Q01DX001 (ip), vehicle: other 91 % of control

O=C1C(CO)=C[C@@H](O)[C@H]2O[C@@H]12
inactive: [5] 100 % of control | [10] 102 % of control | [11] 102 % of control

CCCCCCCCCCCCCCCC(=O)Nc1c(C)cccc1C
inactive: endpoint: mean survival time, dose: 100.0 mg/kg/injection, schedule: Q04DX002 (ip), vehicle: saline with Tween-80 100 % of control | endpoint: mean survival time, dose: 200.0 mg/kg/injection, schedule: Q04DX002 (ip), vehicle: saline with Tween-80 91 % of control | endpoint: mean survival time, dose: 400.0 mg/kg/injection, schedule: Q04DX002 (ip), vehicle: saline with Tween-80 95 % of control

CCC(CC(=O)O)c1ccccc1 (configuration not stated)
inactive: [4] 96 % of control | [5] 100 % of control | [10] 102 % of control

COC(=O)N/N=C\c1ccc(O)c(OC)c1
inactive: [12] 104 % of control | [13] 104 % of control | [14] 97 % of control

CC(=O)/C(=C\c1ccccc1)CNC(C)(C)C
inactive: endpoint: mean survival time, dose: 25.0 mg/kg/injection, schedule: Q01DX001 (ip), vehicle: saline with Tween-80 92 % of control | endpoint: mean survival time, dose: 50.0 mg/kg/injection, schedule: Q01DX001 (ip), vehicle: saline with Tween-80 100 % of control | [9] 100 % of control

C=CCCCCCCCCC(=O)NCc1cccnc1
inactive: [6] 98 % of control | [7] 104 % of control | [8] 90 % of control
